Experimental data as given in PubChem BioAssay (NCI).
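In this assay, cells in 96-well plates receive the compound at five concentrations for 48 hours. Endpoints are linearly interpolated between the surrounding concentrations. The concentration for 50% growth inhibition is given as GI50. TGI is the concentration that stops growth completely.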

Tests used:
Assay in all cases: NCI-60 cell line screen, 48 h
CAKI-1 renal = test system: CAKI-1 renal
COLO 205 colon = test system: COLO 205 colon
DU-145 prostate = test system: DU-145 prostate
HL-60(TB) leukemia = test system: HL-60(TB) leukemia
HOP-92 NSCLC = test system: HOP-92 NSCLC
KM12 colon = test system: KM12 colon
LOX IMVI melanoma = test system: LOX IMVI melanoma
NCI-H460 lung = test system: NCI-H460 lung
SF-539 CNS = test system: SF-539 CNS
TK-10 renal = test system: TK-10 renal

| Structure (SMILES) | GI50 (CAKI-1 renal) | TGI (CAKI-1 renal) | GI50 (COLO 205 colon) | TGI (COLO 205 colon) | GI50 (DU-145 prostate) | TGI (DU-145 prostate) | GI50 (HL-60(TB) leukemia) | TGI (HL-60(TB) leukemia) | GI50 (HOP-92 NSCLC) | TGI (HOP-92 NSCLC) | GI50 (KM12 colon) | TGI (KM12 colon) | GI50 (LOX IMVI melanoma) | TGI (LOX IMVI melanoma) | GI50 (NCI-H460 lung) | TGI (NCI-H460 lung) | GI50 (SF-539 CNS) | TGI (SF-539 CNS) | GI50 (TK-10 renal) | TGI (TK-10 renal) |
| --- | --- | --- | --- | --- | --- | --- | --- | --- | --- | --- | --- | --- | --- | --- | --- | --- | --- | --- | --- | --- |
| C=C1C(=O)O[C@H]2[C@H]1CC/C(Cn1cc(-c3ccc(F)cc3)nn1)=C\CC[C@@]1(C)O[C@@H]21 | 1030 nM | 2230 nM | 459 nM | 1670 nM | 690 nM | 1990 nM | 728 nM | 2760 nM | 349 nM | 1120 nM | 1700 nM | 3430 nM | 901 nM | 2220 nM | 3660 nM | 14000 nM | 271 nM | 1080 nM | 1240 nM | 2530 nM |
| O=CN1N=C(c2cccc(Nc3ccnc4cc(Cl)ccc34)c2)CC1c1ccccc1 (stereo not given) | 348 nM | 7540 nM | 350 nM | 2760 nM | 440 nM | 16800 nM | 213 nM | 487 nM | 209 nM | 787 nM | 315 nM | 12700 nM | 449 nM | 4340 nM | 393 nM | 8400 nM | 370 nM | 2490 nM | 345 nM | 16400 nM |
| CC1(C)OC(=O)C(C#N)=C1C[n+]1ccccc1 | – | > 10000 nM | – | > 10000 nM | – | > 10000 nM | – | > 10000 nM | – | > 10000 nM | – | > 10000 nM | – | > 10000 nM | – | > 10000 nM | – | > 10000 nM | – | > 10000 nM |
| CN(C)CCCC1(c2ccc(F)cc2)OCc2cc(-c3cc4ccccc4s3)ccc21 (stereo not given) | 1290 nM | 2590 nM | 1340 nM | 2740 nM | 1790 nM | 3240 nM | 1760 nM | 3390 nM | 1330 nM | 2950 nM | 1740 nM | 3450 nM | 1640 nM | 3130 nM | 1930 nM | 3670 nM | 1700 nM | 3090 nM | 1700 nM | 3130 nM |
| COc1ccc(/C=C2\SC(=Nc3ccccc3)NC2=O)cc1 | 3980 nM | > 100000 nM | 4680 nM | 27900 nM | 11400 nM | 71500 nM | 3530 nM | > 100000 nM | 7640 nM | 53500 nM | 4370 nM | 22000 nM | 5500 nM | 19600 nM | 3360 nM | 13400 nM | 3600 nM | 15100 nM | 41400 nM | > 100000 nM |
